Experimental data: patent US20030187044A1, “Medicament” (SmithKline Beecham p.l.c., priority 1990, published 2003)

melting point [°C] | SMILES
178 to 181 | CCCSc1ncc(C[C@H](NC(=O)CCC)C(=O)O)n1Cc1ccccc1Cl [Example 1, 3-[(2-Chlorophenyl)methyl]-2-propylthio-N -butyrylhistidine]
254 to 255 | CCCCc1nc2cc(Br)cc(C(=O)O)c2n1Cc1ccccc1Cl [Example 4, 5-Bromo-2-n-butyl-1-(2-chlorophenyl)methyl-1H -benzimidazole-7-carboxylic Acid]
